Reference: patent US7713994B2 (Wyeth LLC, priority 2005, dated 2010)

Legend:
BT474 = assay: Cytotoxicity assay (SRB), BT474; type: cell-based; settings: Homo sapiens, BT-474, 144 h, BT474 cells, SRB, 6 days; read-out: In Vitro Cellular Activity IC50 BT474
Summary of the method: (§1)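 Cells were seeded overnight in RPMI 1640 with 5% FBS at 37 °C, 7% CO2 (12000/well BT474, 4000 HCT-116, 6000 LoVo, 6000 MCF-7), then exposed to compound dilutions for 3 days (6 days for BT474). Survival versus untreated controls was measured by TCA fixation and SRB staining at 540 nm.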

cyclin B/CDK1 enzyme = molecular target: T1, cyclin B/CDK1 enzyme (Homo sapiens, UniProt P06493); assay: CDK1 ELISA kinase assay (phospho-Rb ser 795 detection); type: biochemical; settings: In Vitro Enzyme Assays, read-out: CDK1 IC50
T1 construct: purchased New England BioLabs; host or cells: Sf9 insect cells, recombinant baculovirus
Summary of the method: (§2)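 Screening was done at 10 ug/ml compound. Each partially purified cyclin/CDK complex, produced in baculovirus-infected Sf9 cells, phosphorylated a coated GST-Rb C-terminal fragment with 200 μM ATP, and Ser795 phosphorylation was quantified by HRP-ELISA at 450 nm.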

cyclin D1/cdk 4 enzyme = molecular target: T2, cyclin D1/cdk 4 enzyme (Homo sapiens, UniProt P11802); assay: CDK4 ELISA kinase assay (phospho-Rb ser 795 detection); type: biochemical; settings: In Vitro Enzyme Assays, 200 μM ATP, read-out: CDK4 IC50
T2 construct: made in house; host or cells: Sf9 insect cells, recombinant baculovirus
Summary of the method: as §2

LoVo = assay: Cytotoxicity assay (SRB), LoVo; type: cell-based; settings: Homo sapiens, LoVo, 72 h, LoVo cells, SRB, three days; read-out: In Vitro Cellular Activity IC50 LOVO
Summary of the method: as §1

MCF-7 = assay: Cytotoxicity assay (SRB), MCF-7; type: cell-based; settings: Homo sapiens, MCF7, 72 h, MCF-7 cells, SRB, three days; read-out: In Vitro Cellular Activity IC50 MCF-7
Summary of the method: as §1

cyclin E/CDK2 enzyme = molecular target: T3, cyclin E/CDK2 enzyme (Homo sapiens, UniProt P24941); assay: CDK2 ELISA kinase assay (phospho-Rb ser 795 detection); type: biochemical; settings: In Vitro Enzyme Assays, read-out: CDK2 IC50
T3 construct: made in house; host or cells: Sf9 insect cells, recombinant baculovirus
Summary of the method: as §2

HCT-116 = assay: Cytotoxicity assay (SRB), HCT-116; type: cell-based; settings: Homo sapiens, HCT-116, 72 h, HCT116 cells, SRB, three days; read-out: In Vitro Cellular Activity IC50 HCT116
Summary of the method: as §1

T2 sequence (P11802 whole entry, species assumed): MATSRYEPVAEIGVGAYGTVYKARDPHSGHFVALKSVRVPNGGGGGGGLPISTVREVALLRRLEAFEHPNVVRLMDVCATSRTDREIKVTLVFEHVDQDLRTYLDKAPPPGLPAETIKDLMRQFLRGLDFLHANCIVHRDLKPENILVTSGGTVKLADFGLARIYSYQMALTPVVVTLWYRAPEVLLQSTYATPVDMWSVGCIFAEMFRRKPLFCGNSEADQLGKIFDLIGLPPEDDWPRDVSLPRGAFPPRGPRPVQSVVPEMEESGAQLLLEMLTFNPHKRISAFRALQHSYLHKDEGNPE
T2 sequence (P24385 whole entry partner, species assumed): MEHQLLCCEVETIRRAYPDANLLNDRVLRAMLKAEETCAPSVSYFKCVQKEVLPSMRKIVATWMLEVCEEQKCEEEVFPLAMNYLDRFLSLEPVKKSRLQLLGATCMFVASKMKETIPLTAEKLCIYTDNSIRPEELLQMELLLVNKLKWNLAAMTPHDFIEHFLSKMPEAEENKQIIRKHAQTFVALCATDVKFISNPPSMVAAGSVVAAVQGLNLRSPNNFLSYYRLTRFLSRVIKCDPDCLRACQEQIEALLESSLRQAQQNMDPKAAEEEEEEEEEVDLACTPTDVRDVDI
T1 sequence (P06493 whole entry): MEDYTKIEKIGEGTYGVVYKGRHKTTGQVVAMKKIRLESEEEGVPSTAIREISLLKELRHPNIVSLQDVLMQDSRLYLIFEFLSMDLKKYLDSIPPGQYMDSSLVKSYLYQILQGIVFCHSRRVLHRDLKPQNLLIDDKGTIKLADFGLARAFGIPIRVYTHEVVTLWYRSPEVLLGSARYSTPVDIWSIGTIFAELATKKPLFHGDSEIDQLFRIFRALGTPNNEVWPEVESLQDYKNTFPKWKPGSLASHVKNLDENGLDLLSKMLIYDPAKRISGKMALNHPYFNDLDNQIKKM
T1 sequence (P14635 whole entry partner): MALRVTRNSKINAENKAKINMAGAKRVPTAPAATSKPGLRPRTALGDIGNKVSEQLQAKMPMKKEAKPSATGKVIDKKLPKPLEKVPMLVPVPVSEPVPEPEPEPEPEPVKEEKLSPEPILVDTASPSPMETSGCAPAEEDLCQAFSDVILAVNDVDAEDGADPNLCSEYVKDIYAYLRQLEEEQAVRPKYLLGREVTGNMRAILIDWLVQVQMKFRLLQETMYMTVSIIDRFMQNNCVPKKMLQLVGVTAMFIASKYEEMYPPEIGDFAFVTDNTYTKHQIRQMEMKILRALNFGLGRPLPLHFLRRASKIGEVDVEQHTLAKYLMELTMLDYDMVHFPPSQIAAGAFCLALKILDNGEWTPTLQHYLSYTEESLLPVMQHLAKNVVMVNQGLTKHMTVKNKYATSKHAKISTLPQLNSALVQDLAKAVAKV

SMILES	melting point	IC50 (BT474) [µM]	IC50 (cyclin B/CDK1 enzyme) [µM]	IC50 (cyclin D1/cdk 4 enzyme) [µM]	IC50 (LoVo) [µM]	IC50 (MCF-7) [µM]	IC50 (cyclin E/CDK2 enzyme) [µM]	IC50 (HCT-116) [µM]
C[C@@H]1CN(c2ccc(N/C=C3\C(=O)NC(=O)c4ccc(-c5ccoc5)cc43)cc2)C[C@H](C)N1C [Example 241, (4Z)-6-(3-Furyl)-4-[({4-[(3R,5S)-3,4,5-trimethylpiperazin-1-yl]phenyl}amino)-methylene]isoquinoline-1,3(2H,4H)-dione]	204 to 205 °C	1.2	> 50	0.45	3.8	1.3	> 50	1.9
CCCOc1ccc(CN/C=C2\C(=O)NC(=O)c3cc(OC)c(Br)cc32)cc1O [Example 246, 6-Bromo-4-[(3-hydroxy-4-propoxy-benzylamino)-methylene]-7-methoxy-4H-isoquinoline-1,3-dione]	212 to 214 °C (dec.)	2	> 50	28.3	37	> 50	> 50	22
CN1CCN(c2ccc(N/C=C3\C(=O)NC(=O)c4ccc(Br)cc43)cn2)CC1 [Example 250, (4Z)-6-Bromo-4-({[6-(4-methylpiperazin-1-yl)pyridin-3-′yl]amino}methylene)isoquinoline-1,3(2H,4H)-dione]	265 to 266 °C	7.6	> 50	2.8	7.1	1.6	> 50	6.2
COc1cc2c(cc1-c1ccc(F)cc1)/C(=C/Nc1ccc(CN3CCCCC3)cc1)C(=O)NC2=O [Example 253, 6-(4-Fluoro-phenyl)-7-methoxy-4-[(4-piperidin-1-ylmethyl-phenylamino)-methylene]-4H-isoquinoline-1,3-dione]	227 to 230 °C	2.8	> 50	2.9	2.6	2	> 50	1.1
COc1cc2c(cc1-c1ccoc1)/C(=C/Nc1ccc(N3CCN(C)CC3)cc1)C(=O)NC2=O [Example 254, 6-Furan-3-yl-7-methoxy-4-{[4-(4-methyl-piperazin-1-yl)-phenylamino]-methylene}-4H-isoquinoline-1,3-dione]	198 to 220 °C	2.1	> 50	7.4	4.8	2.4	> 50	2
CO[C@@H]1CCN(Cc2ccc(N/C=C3\C(=O)NC(=O)c4ccc(I)cc43)cc2)C1 [Example 264, (4Z)-6-Iodo-4-{[(4-{[(3R)-3-methoxypyrrolidin-1-yl]methyl}phenyl)amino]methylene}isoquinoline-1,3(2H,4H)-dione]	160 to 161 °C	2.2	> 50	1	8.8	2	> 50	4.4
CO[C@H]1CCN(Cc2ccc(N/C=C3\C(=O)NC(=O)c4ccc(-c5ccc(F)cc5)cc43)cc2)C1 [Example 265, (4Z)-6-(4-Fluorophenyl)-4-{[(4-{[(3S)-3-methoxypyrrolidin-1-yl]methyl}phenyl)amino]methylene}isoquinoline-1,3(2H,4H)-dione]	145 to 146 °C	1.7	> 50	0.3	2.8	1.4	> 50	2
CO[C@@H]1CCN(Cc2ccc(N/C=C3\C(=O)NC(=O)c4ccc(Br)cc43)cc2)C1 [Example 266, (4Z)-6-Bromo-4-{[(4-{[(3R)-3-methoxypyrrolidin-1-yl]methyl}phenyl)amino]methylene}isoquinoline-1,3(2H,4H)-dione]	132 to 133 °C	9.1	> 50	1.9	8.4	4	> 50	6.2
O=C1NC(=O)c2ccc(I)cc2/C1=C/NCc1ccc(OC(F)F)c(O)c1 [Example 267]	254 to 255 °C	3.5	16.5	0.008	3.7	4.8	1.7	3.7
O=C1NC(=O)c2ccc(I)cc2/C1=C/Nc1ccc(Cn2ccnc2)cc1 [Example 273, (4Z)-4-({[4-(1H-Imidazol-1-ylmethyl)phenyl]amino}methylene)-6-iodoisoquinoline-1,3(2H,4H)-dione]	275 to 276 °C	7.5	> 50	24.7	7.9	13	12.3	3
CCCOc1ccc(CNC=C2C(=O)NC(=O)c3ccc(-n4cccc4)cc32)cc1O [Example 278, 4-[(3-Hydroxy-4-propoxy-benzylamino)-methylene]-6-pyrrol-1-yl-4H-isoquinoline-1,3-dione]	215 to 216 °C (dec.)	5	> 50	0.03	4.7	6.3	> 50	2.9
O=C1NC(=O)c2ccc(-c3ccc(C(F)(F)F)cc3)cc2/C1=C/Nc1ccc(CN2CCCC2)cc1 [Example 282, (4Z)-4-({[4-(Pyrrolidin-1-ylmethyl)phenyl]amino}methylene)-6-[4-(trifluoromethyl)phenyl]isoquinoline-1,3(2H,4H)-dione]	176 to 177 °C	3	> 50	27.7	2.7	1.1	> 50	1.1
O=C1NC(=O)c2ccc(Br)cc2/C1=C/Nc1ccc(CN2CCOCC2)cc1 [Example 286, (4Z)-6-Bromo-4-({[4-(morpholin-4-ylmethyl)phenyl]amino}methylene)isoquinoline-1,3(2H,4H)-dione]	209 to 210 °C	16	> 50	3	11	5.5	> 50	5.8
CC1CCCN1Cc1ccc(N/C=C2\C(=O)NC(=O)c3ccc(Br)cc32)cc1 (stereo not drawn) [Example 287, (4Z)-6-Bromo-4-[({4-[(2-methylpyrrolidin-1-yl)methyl]phenyl}amino)methylene]-isoquinoline-1,3(2H,4H)-dione]	183 to 184 °C	1.3	> 50	1.6	5.4	1.7	> 50	4.2
CN1CCN(c2ccc(N/C=C3\C(=O)NC(=O)c4ccc(Br)cc43)cc2F)CC1 [Example 288, (4Z)-6-Bromo-4-({[3-fluoro-4-(4-methylpiperazin-1-yl)phenyl]amino}methylene)-isoquinoline-1,3(2H,4H)-dione]	206 to 207 °C	1.8	> 50	2.9	2	1.5	> 50	1.7
